Like-named read-outs stand apart in the source and are kept apart here.
Tests used:
[1] = test system: rats subjected to myocardial ischemia and reperfusion; conditions: EGCG 10 mg/kg intravenously then 10 mg/kg/h infusion; cited from earlier work
[2] = test system: mice with experimental colitis; conditions: cited from earlier work
[3] = test system: macrophage foam cells; conditions: cited from earlier work
[4] = test system: lipopolysaccharide-activated macrophages; conditions: cited from earlier work
[5] = test system: BALB/c mice exposed to random stress; test: Endogenous neurogenesis in stressed mice, BRDU incorporation assessed by histology; assay type: in vivo; conditions: stressed BALB/c mice treated daily; FIG. 1
Protocol: FIG. 1 is a bar graph showing the results of stressed mice that were treated with Fluoxetine or QuadraMune™ daily. Assessment of endogenous neurogenesis was performed by administering BRDU and assessment of incorporation by histology.
BALB/c mice where exposed to random stress 4 times a day by spinning by the tail for 15 seconds. Controls where not stressed. Stressed mice where treated with Prozac or QuadraMune™ daily. Assessment of endogenous neurogenesis was performed by administering BRDU and assessment of incorporation by histology.

[6] = cited from earlier work
[7] = test system: primary peritoneal macrophages; conditions: cited from earlier work
[8] = test system: LPS-challenged macrophages; conditions: pre-incubated 6 h with SFN 0 to 50 μM, then LPS 24 h; cited from earlier work
[9] = test system: BALB/c mice with LPS-induced ARDS; conditions: cited from earlier work
[10] = test system: lipopolysaccharide-induced inflammatory reactions; conditions: cited from earlier work
[11] = test system: mice challenged with endotoxin (LPS 0111:B4) or live Escherichia coli; conditions: cited from earlier work; for concentrations of IL-la: controls 1187.0±278.64
[12] = test system: cancer patients; test: Pterostilbene (nanostilbene) in cancer patients, NK cell activity and interferon gamma; assay type: in vivo, human; conditions: administered in the form of nanostilbene
Excerpt: Additionally, pterostilbene has shown to inhibit inflammatory cytokines associated with ARDS.

[13] = test system: apoE(−/−) mice; conditions: PT injection; cited from earlier work
[14] = test system: human umbilical vein VECs (HUVECs); conditions: cited from earlier work
[15] = sulforaphane 50 mg/kg, LPS 5 mg/kg

O=C(O[C@@H]1Cc2c(O)cc(O)cc2O[C@@H]1c1cc(O)c(O)c(O)c1)c1cc(O)c(O)c(O)c1 [EGCG, Epigallocatechin Gallate]
myocardial damage and myeloperoxidase activity [1]: reduced | plasma IL-6 and creatine phosphokinase levels [1]: decreased | disease activity index (DAI) and spleen index (SI) ([2]; 50 and 100 mg/kg/day EGCG groups vs MD group): decreased | HIF-1α and STATS protein expression in the colon ([2]; mouse, in vivo): decreasing | plasma levels of IL-10 and TGF-β1 ([2]; mouse, in vivo): increasing | release of IL-6 and IL-17 ([2]; mouse, in vivo): reduce | TNF-α-induced nuclear factor-κB (NF-κB) activity [3]: inhibition | TNF-α-induced downregulation of ABCA1 and decrease in cholesterol efflux to apoA 1 ([3]; pretreatment with EGCG): attenuated | iNOS activity in soluble extracts ([4]; EGCG 5 and 10 microM for 6-24 hr, vs macrophages without EGCG): significantly lower | NO production ([4]; cells cotreated with EGCG and LPS): Inhibition | activation of nuclear factor-kappaB ([4]; electrophoretic mobility shift assay): blocked

CNCCC(Oc1ccc(C(F)(F)F)cc1)c1ccccc1 (stereo not drawn) [Prozac, Fluoxetine]
endogenous neurogenesis (BRDU incorporation by histology) [5]: Augmented neurogenesis

Oc1ccc(C=Cc2cc(O)cc(O)c2)cc1 [resveratrol, reference compound]
bioavailability ([6]; animal studies): 20%

C[S+]([O-])CCCCN=C=S (stereo not drawn) [sulforaphane, 1-isothiocyanato-4-(methylsulfinyl)-butane]
HO-1 expression ([7]; LPS-stimulated Nrf2 (+/+) primary peritoneal macrophages): significantly augmented | anti-inflammatory effect ([7]; Nrf2 (−/−) primary peritoneal macrophages): attenuated | LPS-stimulated mRNA expression, protein expression and production of TNF-alpha, IL-1beta, COX-2 and iNOS ([7]; pretreatment, Nrf2 (+/+) primary peritoneal macrophages): potently inhibited | expression of NO and cytokines [8]: able to prevent | serum levels of interleukin-6 (IL-6) and tumor necrosis factor-α (TNF-α) ([9]; ELISA, sulforaphane 50 mg/kg): significantly decreased | Nrf2/antioxidant response element (ARE) pathway ([9]; pre-treatment): activated | lactate dehydrogenase (LDH) activity [9, 15]: significantly decreased | wet-to-dry ratio of the lungs [9, 15]: significantly decreased | nuclear factor-κB protein expression ([9]; sulforaphane 50 mg/kg): significantly decreased | prostaglandin E2 (PGE2) production, COX-2 and MMP-9 protein expression, iNOS activity ([9]; sulforaphane 50 mg/kg): significantly inhibited

CC1=CC(=O)C(C(C)C)=CC1=O [thymoquinone]
concentration of nitric oxide [10]: reduced significantly | concentrations of IL-la ([11]; 0.75 mg/kg thymoquinone dose): 310.8 ± 70.93 pg/mL | IL-10 levels ([11]; 0.75 mg/kg thymoquinone, controls 5505.2±333.96): 2885.0 ± 553.98 pg/mL | concentrations of IL-la ([11]; 1 mg/kg group): 428.3 ± 71.32 pg/mL | levels of TNF-α and IL-2 ([11]; P values=0.1817 and 0.0851): relatively lower levels | renal and hepatic biomarker profiles ([11]; mouse, in vivo): improved | reduced mortality ([11]; thymoquinone before endotoxin or E. coli sepsis in mice): 80-90%

trans-3,5-dimethoxy-4-hydroxystilbene [pterostilbene]
NK cell activity [12]: increased | interferon gamma production [12]: increased | number of TUNEL-positive cells in the endothelium of atherosclerotic plaque [13]: strongly decreased | oxLDL-induced cell shrinkage, chromatin condensation, nuclear fragmentation and cell apoptosis ([14]; HUVECs, oxLDL 200 μg/ml): protected against such injuries | expression of lectin-like oxLDL receptor-1 (LOX-1) ([14]; in vitro and in vivo): inhibited | bioavailability ([6]; rat, in vivo): 80%

Source: patent publication US20220175701A1, “TREATMENT OF MAJOR DEPRESSIVE DISORDER AND SUICIDAL IDEATIONS THROUGH STIMULATION OF HIPPOCAMPAL NEUROGENESIS UTILIZING PLANT-BASED APPROACHES” (THERAPEUTIC SOLUTIONS INTERNATIONAL, INC., priority 2020, published 2022)
